ChEMBL document CHEMBL1629598, “Statistical model to evaluate in vivo activities of antimalarial drugs in a Plasmodium cynomolgi-macaque model for Plasmodium vivax malaria” (2009)
Activity calls are given as the source filed them. The rule behind the calls is not given here.

Tests used:
Plasmodium cynomolgi [1] = test: Antimalarial activity against blood-stage of Plasmodium cynomolgi M infected in rhesus macaque assessed as reduction of parasitemia administered intramuscularly twice daily for 8 consecutive days measured on day 28 (reference value: 6.1%); assay type: functional; parameters: scale not given: the % may be the effect or the level left
Plasmodium cynomolgi [2] = test: Antimalarial activity against blood-stage of Plasmodium cynomolgi M infected in rhesus macaque assessed as reduction of peak parasitemia days administered intramuscularly twice daily measured after 2nd dose (reference value: 3.5%); assay type: functional
Plasmodium cynomolgi [3] = test: Antimalarial activity against blood-stage of Plasmodium cynomolgi M infected in rhesus macaque assessed as reduction of peak parasitemia administered intramuscularly twice daily measured on day 3; assay type: functional, organism-based
Plasmodium cynomolgi [4] = test: Antimalarial activity against blood-stage of Plasmodium cynomolgi M infected in rhesus macaque assessed as reduction of peak parasitemia days at 40 mg/kg, po qd for 8 consecutive days; assay type: functional
Plasmodium cynomolgi [5] = test: Antimalarial activity against blood-stage of Plasmodium cynomolgi M infected in rhesus macaque assessed as complete cure at 40 mg/kg, po qd after 4 days; assay type: functional, organism-based; parameters: dose 40 mg/kg
Plasmodium cynomolgi [6] = test: Antimalarial activity against blood-stage of Plasmodium cynomolgi M infected in rhesus macaque assessed as reduction of parasitemia at 40 mg/kg, po qd for 8 consecutive days (reference value: 4.7%); assay type: functional; parameters: scale not given: the % may be the effect or the level left
Plasmodium cynomolgi [7] = test: Antimalarial activity against blood-stage of Plasmodium cynomolgi M infected in rhesus macaque assessed as reduction of peak parasitemia days at 3 mg/kg, po qd for 4 consecutive days; assay type: functional
Plasmodium cynomolgi [8] = test: Antimalarial activity against blood-stage of Plasmodium cynomolgi M infected in rhesus macaque assessed as reduction of peak parasitemia days at 3 to 27 mg/kg, po qd for 4 consecutive days; assay type: functional; conditions: dose mg/kg 3-27
Plasmodium cynomolgi [9] = test: Antimalarial activity against blood-stage of Plasmodium cynomolgi M infected in rhesus macaque assessed as reduction of parasitemia days at 3 mg/kg, po qd after 4 to 5 days; assay type: functional, organism-based; parameters: dose 3 mg/kg
Plasmodium cynomolgi [10] = test: Antimalarial activity against blood-stage of Plasmodium cynomolgi M infected in rhesus macaque assessed as reduction of parasitemia at 3 to 27 mg/kg, po qd for 8 consecutive days (reference value: 3%); assay type: functional; parameters: scale not given: the % may be the effect or the level left; conditions: dose mg/kg 3-27
Plasmodium cynomolgi [11] = test: Antimalarial activity against blood-stage of Plasmodium cynomolgi M infected in rhesus macaque assessed as reduction of parasitemia days at 9 mg/kg, po qd after 4 to 5 days; assay type: functional, organism-based; parameters: dose 9 mg/kg
Plasmodium cynomolgi [12] = test: Antimalarial activity against blood-stage of Plasmodium cynomolgi M infected in rhesus macaque assessed as reduction of parasitemia days at 27 mg/kg, po qd after 4 to 5 days; assay type: functional, organism-based; parameters: dose 27 mg/kg
Plasmodium cynomolgi [13] = test: Antimalarial activity against blood-stage of Plasmodium cynomolgi M infected in rhesus macaque assessed as reduction of peak parasitemia days at 9 mg/kg, po qd for 4 consecutive days; assay type: functional
Plasmodium cynomolgi [14] = test: Antimalarial activity against blood-stage of Plasmodium cynomolgi M infected in rhesus macaque assessed as reduction of peak parasitemia days at 27 mg/kg, po qd for 4 consecutive days; assay type: functional

C[N+]1(CCCCCCCCCCCCCCCC[N+]2(C)CCCC2)CCCC1.[Br-].[Br-]
Activity (Plasmodium cynomolgi [1]): 0.5%
Time (Plasmodium cynomolgi [2]): 0.7 days
Activity (Plasmodium cynomolgi [3]): Active

COCC/C(SC(=O)c1ccc(CN2CCOCC2)cc1)=C(\C)N(C=O)CCCCCCCCCCCCN(C=O)/C(C)=C(/CCOC)SC(=O)c1ccc(CN2CCOCC2)cc1.O=C(O)C(O)C(O)C(=O)O
Time (Plasmodium cynomolgi [4]): 1 days
Activity (Plasmodium cynomolgi [5]): Active
Activity (Plasmodium cynomolgi [6]): 1.5%

C/C(=C1\CCOC(=O)S1)N(C=O)CCCCCCCCCCCCN(C=O)/C(C)=C1/CCOC(=O)S1
Time (Plasmodium cynomolgi [7]): 2 days
Time (Plasmodium cynomolgi [8]): 1.9 days
Activity (Plasmodium cynomolgi [9]): Active
Activity (Plasmodium cynomolgi [10]): 0.6%
Activity (Plasmodium cynomolgi [11]): Active
Activity (Plasmodium cynomolgi [12]): Active
Time (Plasmodium cynomolgi [13]): 1.7 days
Time (Plasmodium cynomolgi [14]): 1.6 days
